Measured values reported in patent US11229623B2 (GlaxoSmithKline Intellectual Property (No.2) Limited, priority 2016, dated 2022).

Target: T1, human TRPV4 (Homo sapiens, UniProt Q9HBA0)
T1 construct: expressed in transfected cells; host or cells: BHK/AC9 cells transduced with BacMam virus
Assay: FLIPR assay for hTRPV4 expressed in BHK cells: inhibition of Agonist Compound-induced calcium signal
Format: cell-based
Conditions: hTRPV4 in BHK/AC9 cells, FLIPR calcium signal, agonist at EC80; reported as range class; read-out: IC50
How it was run: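 BHK/AC9 cells transduced with BacMam human TRPV4 (MOI 78), plated 15,000 per well and cultured 24 h at 37° C. Loaded with 2 μM Fluo-4 AM plus 500 μM Brilliant Black in HBSS for 1-1.5 h at room temperature in the dark; intracellular calcium signal read by FLIPR fluorescence.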

T1 sequence (Q9HBA0 whole entry): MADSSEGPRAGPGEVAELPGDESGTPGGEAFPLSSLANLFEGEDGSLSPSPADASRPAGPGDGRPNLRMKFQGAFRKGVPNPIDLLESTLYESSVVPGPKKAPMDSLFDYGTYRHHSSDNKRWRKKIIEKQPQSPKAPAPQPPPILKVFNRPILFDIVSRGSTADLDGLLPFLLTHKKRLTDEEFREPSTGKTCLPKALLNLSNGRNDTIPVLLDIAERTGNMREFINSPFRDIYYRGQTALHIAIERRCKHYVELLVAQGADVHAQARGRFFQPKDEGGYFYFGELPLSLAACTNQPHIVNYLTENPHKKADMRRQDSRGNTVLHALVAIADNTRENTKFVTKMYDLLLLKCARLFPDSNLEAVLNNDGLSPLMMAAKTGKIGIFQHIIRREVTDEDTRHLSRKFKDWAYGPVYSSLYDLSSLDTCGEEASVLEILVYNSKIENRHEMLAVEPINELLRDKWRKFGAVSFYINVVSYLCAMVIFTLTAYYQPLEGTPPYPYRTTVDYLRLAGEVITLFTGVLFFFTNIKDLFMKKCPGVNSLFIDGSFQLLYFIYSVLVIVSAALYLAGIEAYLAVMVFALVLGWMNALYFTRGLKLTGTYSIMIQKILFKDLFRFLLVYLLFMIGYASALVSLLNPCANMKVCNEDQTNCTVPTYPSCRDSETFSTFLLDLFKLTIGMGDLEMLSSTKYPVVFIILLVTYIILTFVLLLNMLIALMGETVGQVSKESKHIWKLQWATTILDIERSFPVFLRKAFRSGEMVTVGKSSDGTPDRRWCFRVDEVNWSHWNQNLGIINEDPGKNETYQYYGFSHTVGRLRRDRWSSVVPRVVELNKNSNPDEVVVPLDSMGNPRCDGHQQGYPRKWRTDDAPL

IC50 [nM] | SMILES
10 to 100 | C[C@H](N)[C@]1(O)CN(S(=O)(=O)c2ccc(Cl)cn2)C[C@@H]1Oc1ccc(C#N)c(F)c1 [Example 257, 4-(((3S,4R)-4-((S)-1-aminoethyl)-1-((5-chloropyridin-2-yl)sulfonyl)-4-hydroxypyrrolidin-3-yl)oxy)-2-fluorobenzonitrile, 2,2,2-trifluoroacetate]
0.1 to 10 | N#Cc1ccc(O[C@H]2CN(S(=O)(=O)c3ccc(OC(F)(F)F)cc3C#N)C[C@@]2(O)CO)cc1F [compound 232, 4-(((3S,4R)-1-((2-cyano-4-(trifluoromethoxy)phenyl)sulfonyl)-4-hydroxy-4-(hydroxymethyl)pyrrolidin-3-yl)oxy)-2-fluorobenzonitrile]
0.1 to 10 | N#Cc1ccc(O[C@H]2CN(S(=O)(=O)c3ccc(Cl)cc3C#N)C[C@@]23CNCCO3)cc1F [compound 253]
